Results published in patent publication US9273033B2, “Substituted pyridone derivatives as PDE10 inhibitors” (Merck Sharp & Dohme Corp., priority 2012, dated 2016).

Biological target: human PDE10A2 (Homo sapiens (Human), UniProt Q9Y233)
Assay: PDE10 fluorescence polarization (IMAP FP) inhibition assay
Format: biochemical
Settings: human PDE10A2, FAM-labeled cAMP substrate, read-out: PDE10A Ki
In short: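 Cytoplasmic lysate of AD293 cells transiently expressing human PDE10A2 (diluted to ~20% substrate conversion) incubated 30 min at room temperature with 50 nM FAM-cAMP in Tris pH 7.2 buffer with MgCl2, DTT. Activity read by IMAP fluorescence polarization. 0% inhibition set with 1% DMSO, 100% with reference PDE10 inhibitor.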

Sequence of human PDE10A2 (Q9Y233 267-1055): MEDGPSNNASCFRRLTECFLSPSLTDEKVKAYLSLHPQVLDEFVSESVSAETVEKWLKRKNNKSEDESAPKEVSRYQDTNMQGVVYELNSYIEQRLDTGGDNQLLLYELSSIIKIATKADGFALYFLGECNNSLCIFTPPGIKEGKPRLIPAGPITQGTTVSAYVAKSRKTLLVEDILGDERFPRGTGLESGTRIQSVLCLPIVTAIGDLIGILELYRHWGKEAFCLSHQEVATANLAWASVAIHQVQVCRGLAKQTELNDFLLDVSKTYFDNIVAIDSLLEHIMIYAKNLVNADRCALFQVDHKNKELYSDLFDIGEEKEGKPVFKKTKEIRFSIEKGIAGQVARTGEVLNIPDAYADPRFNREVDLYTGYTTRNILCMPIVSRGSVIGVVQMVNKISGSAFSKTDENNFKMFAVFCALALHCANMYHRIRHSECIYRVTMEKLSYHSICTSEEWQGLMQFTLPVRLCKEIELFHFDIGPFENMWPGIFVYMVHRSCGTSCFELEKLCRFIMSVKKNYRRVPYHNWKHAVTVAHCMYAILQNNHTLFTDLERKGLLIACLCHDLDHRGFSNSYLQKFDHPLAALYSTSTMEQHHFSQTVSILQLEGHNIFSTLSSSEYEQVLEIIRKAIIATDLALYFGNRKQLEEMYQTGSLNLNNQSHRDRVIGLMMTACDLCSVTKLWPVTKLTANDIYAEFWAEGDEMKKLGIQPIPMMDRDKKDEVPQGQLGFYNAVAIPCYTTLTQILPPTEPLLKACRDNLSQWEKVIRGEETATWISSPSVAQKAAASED

| SMILES | Ki [pM] |
| --- | --- |
| COc1ccc([C@H]2C[C@@H]2COc2nc(C)ncc2-c2ccc(=O)n(C(C)C)c2)nc1 [Example 21, 1-isopropyl-5-(4-(((1S,2S)-2-(5-methoxypyridin-2-yl)cyclopropyl)methoxy)-2-methylpyrimidin-5-yl)pyridin-2(1H)-one] | 827 |
| Cc1ccc([C@H]2C[C@@H]2COc2nc(C)ncc2-c2ccn(CC(F)(F)F)c(=O)c2)nc1 [Example 105, 4-(2-methyl-4-(((1S,2S)-2-(5-methylpyridin-2-yl)cyclopropyl)methoxy)pyrimidin-5-yl)-1-(2,2,2-trifluoroethyl)pyridin-2(1H)-one] | 740 |
| Cc1ccc([C@H]2C[C@@H]2COc2nc(C)ncc2-c2ccn(CCO)c(=O)c2)nc1 [Example 126, 1-(2-hydroxyethyl)-4-(2-methyl-4-(((1S,2S)-2-(5-methylpyridin-2-yl)cyclopropyl)methoxy)pyrimidin-5-yr)pyridin-2(1H)-one] | 1010 |
| CCn1ccc(-c2cnc(C)nc2OC[C@H]2C[C@@H]2c2ccc3ccccc3n2)cc1=O [Example 96, 1-ethyl-4-(2-methyl-4-(((lS,2S)-2-(quinolin-2-yl)cyclopropyl)methoxy)pyrimidin-5-yl)pyridin-2(1H)-one] | 21 |
| Cc1ncc(-c2cc(=O)[nH]cc2C)c(OC[C@H]2C[C@@H]2c2ccc3ccccc3n2)n1 [Example 81, 5-methyl-4-(2-methyl-4-(((1S,2S)-2-(quinolin-2-yl)cyclopropyl)methoxy)pyrimidin-5-yl)pyridin-2(1H)-one] | 11 |
| CCn1cc(-c2cnc(C)nc2OC[C@H]2C[C@@H]2c2ccc(C)cn2)ccc1=O [Example 5, 1-ethyl-5-(2-methyl-4-(((1S,2S)-2-(5-methylpyridin-2-yl)cyclopropyl)methoxy)pyrimidin-5-yl)pyridin-2(1H)-one] | 1100 |
| C=CCn1ccc(-c2cnc(C)nc2OC[C@H]2C[C@@H]2c2ccc(C)cn2)cc1=O [Example 123, 1-allyl-4-(2-methyl-4-(((1S,2S)-2-(5-methylpyridin-2-yl)cyclopropyl)methoxy)pyrimidin-5-yl)pyridin-2(1H)-one] | 508 |
| Cc1ncc(-c2ccc(=O)n(C)c2C)c(OC[C@H]2C[C@@H]2c2ccc3c(n2)CCC3)n1 [Example 58, 5-(4-(((1S,2S)-2-(6,7-dihydro-5H-cyclopenta[b]pyridin-2-yl)cyclopropyl)methoxy)-2-methylpyrimidin-5-yl)-1,6-dimethylpyridin-2(1H)-one] | 481 |
| COc1ccc([C@H]2C[C@@H]2COc2nc(C)ncc2-c2ccc(=O)n(C(F)F)c2)nc1 [Example 20, 1-(difluoromethyl)-5-(4-(((1S,2S)-2-(5-methoxypyridin-2-yl)cyclopropyl)methoxy)-2-methylpyrimidin-5-yl)pyridin-2(1H)-one] | 1210 |
| Cc1ncc(-c2ccn(C)c(=O)c2)c(OC[C@H]2C[C@@H]2c2ccc(OC(F)F)cn2)n1 [Example 90, 4-(4-(((1S,2S)-2-(5-(difluoromethoxy)pyridin-2-yl)cyclopropyl)methoxy)-2-methylpyrimidin-5-yl)-1-methylpyridin-2(1H)-one] | 9220 |
| COC(=O)Cn1ccc(-c2cnc(C)nc2OC[C@H]2C[C@@H]2c2ccc(OC)cn2)cc1=O [Example 124, methyl 2-(4-(4-(((1S,2S)-2-(5-methoxypyridin-2-yl)cyclopropyl)methoxy)-2-methylpyrimidin-5-yl)-2-oxopyridin-1(2H)-yl)acetate] | 284 |
| COCCn1ccc(-c2cnc(C)nc2OC[C@H]2C[C@@H]2c2ccc3ccccc3n2)cc1=O [Example 100, 1-(2-methoxyethyl)-4-(2-methyl-4-(((1S,2S)-2-(quinolin-2-yl)cyclopropyl)methoxy)pyrimidin-5-yl)pyridin-2(1H)-one] | 12 |
| COc1ccc([C@H]2C[C@@H]2COc2nc(C)ncc2-c2cc(=O)n(C)cc2SC)nc1 [Example 92, 4-(4-(((1S,2S)-2-(5-methoxypyridin-2-yl)cyclopropyl)methoxy)-2-methylpyrimidin-5-yl)-1-methyl-5-(methylthio)pyridin-2(1H)-one] | 12500 |
